The series deals with endothelial cells 301 and the smooth muscle cells 302. Put plainly: drug evaluation method: toxicity of a drug to cells cultured on the porous membrane of a microfluidic device, read by flow rate in the lower micro flow channel. In kind it is cell-based. The settings on record: cytochalasin 50 μg/ml contained in liquid A and liquid B; concluded from the increased flow-rate slope (decreased barrier property). The text has this:
The drug evaluation method according to the present embodiment includes culturing cells on the surface of the porous membrane 30 of the microfluidic device 110 (a step S41). […] This makes it possible to form a structure that simulates the blood vessel (the artery) in the microfluidic device 110. It is noted that the cells to be evaluated may be cultured only on one surface of the porous membrane 30.
The drug evaluation method according to the present embodiment includes exposing cells cultured on the surface of the porous membrane 30 to a drug to be evaluated (a step S42). That is, a liquid containing a drug to be evaluated is supplied to each of the upper micro flow channel 18 and the lower micro flow channel 24.
The drug evaluation method according to the present embodiment includes acquiring the evaluation indicator of the permeability of the porous membrane 30 according to any one of the first to third embodiments described above as an indicator of toxicity of the drug to be evaluated to the cells. That is, the change that occurs in the liquid accommodated in the lower micro flow channel 24 is acquired as an indicator of toxicity of the drug to be evaluated to the cells, in a case where the liquid is supplied to the upper micro flow channel 18 while the supply pressure is being changed (a step S43). […]

As to cytochalasin, the “toxicity to the endothelial cells 301 and the smooth muscle cells 302” value is reported as “has toxicity”.
